What follows are compounds tested against T1, isolated kinase domain of the human FLT3 receptor (a.a. 571-993) (Homo sapiens, UniProt P36888) (assay: FLT3 fluorescence polarization kinase assay). Conditions: 150 uM ATP; uncertainty ±10%.
T1 construct: human FLT3 receptor (a.a. 571-993)
T1 sequence (P36888 571-993): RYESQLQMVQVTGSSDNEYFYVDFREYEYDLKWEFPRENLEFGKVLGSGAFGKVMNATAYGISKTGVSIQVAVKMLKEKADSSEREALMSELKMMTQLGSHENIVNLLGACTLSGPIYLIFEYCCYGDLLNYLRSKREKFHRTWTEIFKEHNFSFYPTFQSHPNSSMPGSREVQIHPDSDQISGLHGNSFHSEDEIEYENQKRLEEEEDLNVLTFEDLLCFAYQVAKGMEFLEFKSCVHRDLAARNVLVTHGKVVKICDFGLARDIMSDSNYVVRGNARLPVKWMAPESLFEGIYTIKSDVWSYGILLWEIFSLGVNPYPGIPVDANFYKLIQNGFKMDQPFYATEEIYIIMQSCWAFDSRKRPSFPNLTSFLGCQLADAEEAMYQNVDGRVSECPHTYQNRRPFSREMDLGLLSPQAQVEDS
Type: biochemical

SMILES	IC50
CC(C)Oc1ccc(NC(=O)N2CCC(c3ncnc4cc(NCCCN5CCN(C)CC5)ccc34)CC2)cc1 [Example 102, 4-{7-[3-(4-Methyl-piperazin-1-yl)-propylamino]-quinazolin-4-yl}-piperidine-1-carboxylic acid (4-isopropoxy-phenyl)-amide]	5 nM
CC(C)Oc1ccc(NC(=O)N2CCC(c3ncnc4cc(N5CCN(C)CC5)ccc34)CC2)cc1 [Example 103, 4-[7-(4-Methyl-piperazin-1-yl)-quinazolin-4-yl]-piperidine-1-carboxylic acid (4-isopropoxy-phenyl)-amide]	1 nM
CN1CCN(CCCOc2ccc3c(C4CCN(C(=O)Nc5ccc(N6CCCC6)nc5)CC4)ncnc3c2)CC1 [Example 104, 4-{7-[3-(4-Methyl-piperazin-1-yl)-propoxy]-quinazolin-4-yl}-piperidine-1-carboxylic acid (6-pyrrolidin-1-yl-pyridin-3-yl)-amide]	11 nM
CN1CCN(CCCOc2ccc3c(C4CCN(C(=O)Nc5cnc(N6CCCC6)nc5)CC4)ncnc3c2)CC1 [Example 105, 4-{7-[3-(4-Methyl-piperazin-1-yl)-propoxy]-quinazolin-4-yl}-piperidine-1-carboxylic acid (2-pyrrolidin-1-yl-pyrimidin-5-yl)-amide]	64 nM
CN1CCC(COc2ccc3c(C4CCN(C(=O)Nc5ccc(OC6CCC6)nc5)CC4)ncnc3c2)CC1 [Example 107, 4-[7-(1-Methyl-piperidin-4-ylmethoxy)-quinazolin-4-yl]-piperidine-1-carboxylic acid (6-cyclobutoxy-pyridin-3-yl)-amide]	1 nM
CN1CCC(COc2ccc3c(C4CCN(C(=O)Nc5ccc(N6CCCC6)cc5)CC4)ncnc3c2)CC1 [Example 109, 4-[7-(1-Methyl-piperidin-4-ylmethoxy)-quinazolin-4-yl]-piperidine-1-carboxylic acid (4-pyrrolidin-1-yl-phenyl)-amide]	35 nM
O=C(NCCCOc1ccc2c(C3CCN(C(=O)Nc4ccc(N5CCCC5)nc4)CC3)ncnc2c1)N1CCOCC1 [Example 112, Morpholine-4-carboxylic acid (3-{4-[1-(6-pyrrolidin-1-yl-pyridin-3-ylcarbamoyl)-piperidin-4-yl]-quinazolin-7-yloxy}-propyl)-amide]	5 nM
CCN1CCN(CCCOc2ccc3c(C4CCN(C(=O)Nc5ccc(N6CCOCC6)cc5)CC4)ncnc3c2)CC1 [Example 115, 4-{7-[3-(4-Ethyl-piperazin-1-yl)-propoxy]-quinazolin-4-yl}-piperidine-1-carboxylic acid (4-morpholin-4-yl-phenyl)-amide]	16 nM
O=C(Nc1ccc(N2CCOCC2)cc1)N1CCC(c2ncnc3cc(OCCCN4CCN(CCO)CC4)ccc23)CC1 [Example 116, 4-(7-{3-[4-(2-Hydroxy-ethyl)-piperazin-1-yl]-propoxy}-quinazolin-4-yl)-piperidine-1-carboxylic acid (4-morpholin-4-yl-phenyl)-amide]	14 nM
CS(=O)(=O)N1CCN(CCCOc2ccc3c(C4CCN(C(=O)Nc5ccc(N6CCOCC6)cc5)CC4)ncnc3c2)CC1 [Example 118, 4-{7-[3-(4-Methanesulfonyl-piperazin-1-yl)-propoxy]-quinazolin-4-yl}-piperidine-1-carboxylic acid (4-morpholin-4-yl-phenyl)-amide]	8 nM
O=C(Nc1ccc(N2CCOCC2)cc1)N1CCC(c2ncnc3cc(OCCCN4CCC[C@H]4CO)ccc23)CC1 [Example 119, (S)-4-{7-[3-(2-Hydroxymethyl-pyrrolidin-1-yl)-propoxy]-quinazolin-4-yl}-piperidine-1-carboxylic acid (4-morpholin-4-yl-phenyl)-amide]	47 nM
CS(=O)(=O)OCCCOc1ccc2c(C3CCN(C(=O)Nc4ccc(N5CCOCC5)cc4)CC3)ncnc2c1 [Example 122, Methanesulfonic acid 3-{4-[1-(4-morpholin-4-yl-phenylcarbamoyl)-piperidin-4-yl]-quinazolin-7-yloxy}-propyl ester]	23 nM

Further compounds by falling IC50, results first:

IC50	SMILES
94 nM	CC(=O)N1CCN(CCCOc2ccc3c(C4CCN(C(=O)Nc5ccc(N6CCOCC6)cc5)CC4)ncnc3c2)CC1 [Example 117, 4-{7-[3-(4-Acetyl-piperazin-1-yl)-propoxy]-quinazolin-4-yl}-piperidine-1-carboxylic acid (4-morpholin-4-yl-phenyl)-amide]
36 nM	CN(C)C(=O)N1CCN(CCCOc2ccc3c(C4CCN(C(=O)Nc5ccc(N6CCOCC6)cc5)CC4)ncnc3c2)CC1 [Example 120, 4-(3-{4-[1-(4-Morpholin-4-yl-phenylcarbamoyl)-piperidin-4-yl]-quinazolin-7-yloxy}-propyl)-piperazine-1-carboxylic acid dimethylamide]
21 nM	O=C(Nc1ccc(N2CCOCC2)cc1)N1CCC(c2ncnc3cc(OCCCN4CCCC4)ccc23)CC1 [Example 124, 4-[7-(3-Pyrrolidin-1-yl-propoxy)-quinazolin-4-yl]-piperidine-1-carboxylic acid (4-morpholin-4-yl-phenyl)-amide]
6 nM	CN1CCCN(CCCOc2ccc3c(C4CCN(C(=O)Nc5ccc(N6CCOCC6)cc5)CC4)ncnc3c2)CC1 [Example 125, 4-{7-[3-(4-Methyl-[1,4]diazepan-1-yl)-propoxy]-quinazolin-4-yl}-piperidine-1-carboxylic acid (4-morpholin-4-yl-phenyl)-amide]
4 nM	CN1CCC(COc2ccc3c(C4CCN(C(=O)Nc5ccc(N6CCOCC6)nc5)CC4)ncnc3c2)CC1 [Example 108, 4-[7-(1-Methyl-piperidin-4-ylmethoxy)-quinazolin-4-yl]-piperidine-1-carboxylic acid (6-morpholin-4-yl-pyridin-3-yl)-amide]
3 nM	CC(C)Oc1ccc(NC(=O)N2CCC(c3ncnc4cc(OCCCOS(C)(=O)=O)ccc34)CC2)cc1 [Example 121, Methanesulfonic acid 3-{4-[1-(4-isopropoxy-phenylcarbamoyl)-piperidin-4-yl]-quinazolin-7-yloxy}-propyl ester]

— patent US20070004660A1, “Synergistic Modulation of Flt3 Kinase Using Alkylquinolines and Alkylquinazolines” (priority 2005, published 2007)
